The structures appear in SMILES notation. Several values for one entry are separate records, joined by “and”; a condition that tells them apart may be missing. Equal entries are not always repeated.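 Exposure lasted 48 hours, with cells grown in 96-well plates and compounds tested at five concentrations. Abbreviation: GI50, concentration required for 50% inhibition of growth. The concentration for full growth arrest is given as TGI.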

Test systems include MDA-N; KM20L2 colon; LXFL 529 NSCLC; SNB-78 CNS; XF 498 CNS; DMS 273 small cell lung; M19-MEL melanoma; HOP-18 NSCLC; RXF-631 renal.
What all share (test): NCI tumour cell line growth inhibition, 48 h

In the assay with MDA-N, `Nc1ncn(C2OC(COP(=O)(O)O)C(O)C2O)c(=O)n1` (configuration not stated) had a TGI of over 100 µM.

Regarding `O=C1C=C2C=CC3CC2(O1)C1CCCCN31` (configuration not stated), in the assay on MDA-N, the GI50 is 16.8 µM and 18.8 µM and 36 µM; the TGI was over 100 µM.

In the assay on MDA-N, `CCNc1cc2oc(=O)cc(C(F)(F)F)c2cc1C` had a TGI of over 100 µM.

Regarding `CC(C)=O.O=C([O-])C(F)(F)F.O=C([O-])C(F)(F)F.O=C([O-])C(F)(F)F.O=C([O-])C(F)(F)F.[Rh+2].[Rh+2]`, the GI50 with KM20L2 colon is over 100000 nM; in the assay with LXFL 529 NSCLC it was 31 µM; in the assay with SNB-78 CNS it was 49.4 µM; in the assay on XF 498 CNS it was 58 µM; in the assay on DMS 273 small cell lung, 94.1 µM; in the assay with M19-MEL melanoma, 47.4 µM. For the same compound, the TGI in the assay with KM20L2 colon, in the assay on LXFL 529 NSCLC, with SNB-78 CNS, in the assay with XF 498 CNS, in the assay on DMS 273 small cell lung and in the assay on M19-MEL melanoma was over 100 µM in each case.

In the case of `CCC[CH2][Sn]([CH2]CCC)([CH2]CCC)[O]C(=O)C(OC(C)=O)c1ccccc1` (configuration not stated), in the assay on KM20L2 colon, the GI50 is 80.1 nM and the TGI came out at 0.217 µM.

As for `COC(NC(N)=O)C(=O)O` (configuration not stated), the TGI in the assay on MDA-N is over 100 µM.

Regarding `O=C(O)C1CCN(Cc2oc(CO)cc(=O)c2O)C1` (configuration not stated), in the assay on MDA-N, the TGI is over 100 µM.

In the case of `O=C1NC(=O)[C@@]2(CC[C@@H](O)C2)c2ccncc21`, in the assay on MDA-N, the TGI is over 100 µM.

For the compound `O=C(O)/C=C/c1ccc[c]([Sb](=[O])([OH])[OH])c1`, in the assay with MDA-N, the GI50 is over 100 µM and the TGI was over 100 µM.

As to `O=C1C=CC(=O)C2C1Cc1ccccc1C2c1ccccc1` (configuration not stated), the TGI is over 100 µM in the assay on KM20L2 colon; 31.1 µM in the assay with LXFL 529 NSCLC; over 100 µM in the assay on HOP-18 NSCLC; over 100 µM in the assay on DMS 273 small cell lung; over 100 µM in the assay on M19-MEL melanoma.

For `O=C(Nc1cc(Cl)ccc1Cl)c1cc2cccc(Br)c2oc1=O`, the TGI is over 100 µM in the assay with KM20L2 colon; 72.6 µM in the assay with XF 498 CNS; over 100 µM in the assay with HOP-18 NSCLC; over 100 µM in the assay with DMS 273 small cell lung; over 100 µM with M19-MEL melanoma.

On to `S=c1nc(C(c2ccccc2)c2ccccc2)[nH][nH]1`, for which the TGI in the assay with KM20L2 colon, with XF 498 CNS, in the assay with RXF-631 renal, in the assay on DMS 273 small cell lung and with M19-MEL melanoma was over 100 µM in each case.

Turning to `CCO/C(CCn1[nH]c(=O)c(Cl)c(Cl)c1=O)=N\NC(=O)C(=O)NN`, the TGI with KM20L2 colon, with LXFL 529 NSCLC, in the assay with XF 498 CNS, with RXF-631 renal, in the assay on HOP-18 NSCLC and with DMS 273 small cell lung was over 100 µM each time. In addition, in the assay on M19-MEL melanoma, the TGI is over 100 µM.

`COc1ccc2c3c(c(C(=O)O)oc13)CCC2`: the TGI in the assay with LXFL 529 NSCLC, in the assay on SNB-78 CNS, in the assay with XF 498 CNS, in the assay with DMS 273 small cell lung and in the assay with M19-MEL melanoma was over 100 µM each time.

Take `O=c1/c(=C/c2c(O)ccc3ccccc23)sc2nc3ccccc3n12`: the TGI in the assay with KM20L2 colon, in the assay with LXFL 529 NSCLC, in the assay with SNB-78 CNS, in the assay with XF 498 CNS, in the assay with RXF-631 renal and in the assay with HOP-18 NSCLC was over 100 µM throughout. Moreover, the TGI in the assay with DMS 273 small cell lung and with M19-MEL melanoma was over 100 µM in each case.

As for `CC(C)(CN1CCOCC1)C(=O)/C=C/c1ccc(/C=C/C(=O)C(C)(C)CN2CCOCC2)cc1`, the TGI came to 2.89 µM with KM20L2 colon; 2.59 µM in the assay with LXFL 529 NSCLC; 3.07 µM with SNB-78 CNS; 2.84 µM with XF 498 CNS; 3.13 µM in the assay on RXF-631 renal; 1.87 µM in the assay on DMS 273 small cell lung.

For `Cc1cc(C)nc(NS(=O)(=O)c2ccc(Nc3c4ccccc4nc4c(C(=O)Nc5ccc(S(=O)(=O)Nc6cc(C)on6)cc5)ccc(Cl)c34)cc2)n1`, the TGI was 35.4 µM in the assay with KM20L2 colon; 42.4 µM with LXFL 529 NSCLC; over 100 µM in the assay with SNB-78 CNS; 36.2 µM with XF 498 CNS; 64.6 µM in the assay with RXF-631 renal; over 100 µM with M19-MEL melanoma.

As to `O=c1nc(NC(c2ccccc2)(c2ccccc2)c2ccccc2)ccn1CCCl`, the TGI in the assay on KM20L2 colon worked out at 33 µM; in the assay on LXFL 529 NSCLC it was 26.4 µM; in the assay with SNB-78 CNS it was 86.7 µM; with XF 498 CNS, 27.1 µM; in the assay on RXF-631 renal it was 97.4 µM; in the assay with HOP-18 NSCLC, 72.1 µM. In the assay on M19-MEL melanoma, this compound displayed a TGI of 40.5 µM.

On to `Cc1cn(CCC(N)C(=O)O)c(=O)[nH]c1=O` (configuration not stated), for which, in the assay on MDA-N, the TGI is over 100 µM.

As for `O=C1OC(c2ccccc2)(c2ccccc2)c2ccc3ccc(F)cc3c21`, the TGI in the assay with KM20L2 colon, with LXFL 529 NSCLC, in the assay on XF 498 CNS, in the assay with RXF-631 renal, in the assay with DMS 273 small cell lung and in the assay with M19-MEL melanoma was over 100 µM each time.

With `Cc1cc2c(cc1C)[n+](=O)c(C(=O)/C=C/c1ccc3c(c1)OCO3)c(C)n2[O-]`, the TGI with KM20L2 colon is over 100 µM; with SNB-78 CNS, over 100 µM; in the assay with XF 498 CNS it was 54.9 µM; with RXF-631 renal, over 91.3 µM; in the assay on HOP-18 NSCLC it was over 100 µM; in the assay with DMS 273 small cell lung, over 100 µM. The TGI in the assay on M19-MEL melanoma and in the assay with MDA-N was over 100 µM throughout.

The values above are taken from PubChem BioAssay (NCI).
